Experimental findings from patent US20180200331A1, “BST-2 AS A THERAPEUTIC TARGET AND DIAGNOSTIC MARKER FOR BREAST CANCER GROWTH AND METASTASIS” (University of Iowa Research Foundation, priority 2015, published 2018) are described below.

Series [1] concerns E0771 cells. In words: Orthotopic implantation of E0771 cells in C57BL/6 mice. In kind it is in vivo. How it is done: Five-week-old C57BL/6NCr and BALB/cAnNCr female mice were used. Mice were sacrificed when they became moribund. Tumor volume (TV) was calculated as: TV=0.5(length*width2). Tumor latency was calculated as the number of tumor-free injected mice/number of injected mice×100. To assess morbidity, the following clinical score ranking was used: (0) no abnormal clinical signs, (1) ruffled fur but lively, (2) ruffled fur, activity level slowing, sick, (3) ruffled fur, eyes squeezed shut, hunched, hardly moving, very sick, (4) moribund and (5) dead. Experiments involving mice were approved by the University of Iowa Animal Care and Use Committee (IACUC).
Prior to imaging, mice were anesthetized, weighed and injected intraperitoneally with D-luciferin. Mice were imaged using the Xenogen IVIS three dimensional optical imaging system (Caliper Life Sciences, Hopkinton, Mass., USA). Luciferase was quantified with Living Image Software (Caliper Life Sciences).

Series [2] has as its system E0771 cells. In words: MEF adhesion assay. In kind it is cell-based, mouse. The note with it: luciferase bioluminescence and PKH67Green. How it is done: Murine embryonic fibroblasts (MEFs) were grown to confluency in 6-well plates. Equivalent numbers (150,000) of cancer cells labeled with PKH67Green fluorescent cell linker, following the manufacturer's instructions (Sigma-Aldrich), were added to the MEF monolayer and allowed to incubate for 8 hours. Non-adhered cells were washed off and adhered cells imaged. Image J (NIH, Bethesda, Md., USA) was used to quantify the number of PKH67Greenpositive cells. In parallel, luciferase-expressing cancer cells were added to MEFs monolayers in 6-well plates for 8 hours. Non-adhered cells were washed off and adhered cells were treated with D-luciferin and imaged using IVIS. For luciferase assay, cancer cells plated in 96-well plate were used for quantitation of luciferase bioluminescence.

Series [3] relates to E0771 and 4T1 cells. In words: BrdU assay. In kind it is cell-based, mouse. The protocol: A total of 5,000 cells were plated in 96-well plates for 24 hours. Bromodeoxyuridine or 5-bromo-2′-deoxyuridine (BrdU) (Calbiochem, Billerica, Mass., USA) assay was carried out according to the manufacturer's instructions. Absorbance at 450 nm was read using a Tecan Infinite plate reader. In parallel, 150,000 cells were plated in 24-well plates for 24 hours. Cells were incubated with BrdU label (1:2000) for 20 hours, treated with a fixative/denaturing solution (30 minutes) and incubated with an anti-BrdU antibody (1:1000) and rat anti-mouse BST-2 antibody (1:200, eBioscience) for 1 hour at room temperature. Cells were washed and incubated with Alexa Fluor 594 anti-rat (Invitrogen, Waltham, Mass., USA) and Alexa Fluor 488 anti-mouse (Invitrogen) secondary antibodies for 30 minutes at room temperature. Cells were stained with 4′,6-diamidino-2-phenylindole (DAPI)-containing Vectashield (Vector Laboratories, Burlingame, Calif., USA) and imaged using a Zeiss 710 confocal microscope (Carl Zeiss, Oberkochen, Germany). Images were processed using Image J software. BrdU label, fixative/denaturing solution, and anti-BrdU antibody were from BrdU (Calbiochem) assay.
(In general: Incorporation of labelled thymidine or its analogues reports DNA synthesis.)

Regarding “sh413: BST-2-targeting shRNA (SEQ ID NO:4), delivered by lentiviral particles (CCGGGCTTGAGAATGAAGTCACGAACTCGAGTTCGTGACTTCATTCTCAAGCTTTTTG)”, in series [1] (Kaplan-Meier), the “median overall survival (OS)” value stood at 23 days and the “survival area under the curve (AUC)” value is 2,679. Moreover, the malignant ascites entry in series [1] (n=10) is reported as “prevented the development of malignant ascites”. Further, the “cancer cell adhesion to MEF” value in series [2] is “decreased the ability of cancer cells to adhere to supporting cells”. Also, the “cell proliferation (BrdU incorporation)” value in series [3] is reported as “no effect on cell proliferation”.
